Experimental data from US20200016173A1 (CHINA MEDICAL UNIVERSITY, priority 2016, published 2020).

Assays:
[1] = system: human stomach gastric carcinoma (SNU-1) xenograft; test: human-tumor xenograft in athymic nude mice; format: in vivo; settings: I.P., 5-FU 5 mg/kg, Exe 100 mg/kg, 3 times/wk for 4-wks
gastric cancer = settings: fluorouracil chemotherapy, GCa patients; cited from earlier work

Question: Which results are given for `O=c1[nH]cc(F)c(=O)[nH]1` [5-FU, fluorouracil]?
Answer: tumor growth [1]: suppress; toxicity (patients with other gastrointestinal malignancies) (gastric cancer): > 50 % patients
